Reference: ChEMBL document CHEMBL3603747, “Discovery, design, and synthesis of indole-based EZH2 inhibitors” (Bioorg Med Chem Lett, 2015)

Columns and labels:
Assay type in all cases: ADME, organism-based
[1] = Volume of distribution at steady state in CB17 SCID mouse at 1 mg/kg, iv by LC-MS method; details: in vivo, read-out: Vdss
[2] = AUC in CB17 SCID mouse at 1 mg/kg, iv by LC-MS method; details: in vivo
[3] = Cmax in CB17 SCID mouse at 200 mg/kg, sc by LC-MS method; parameters: dose 200 mg/kg, route subcutaneous; details: in vivo
[4] = AUC in CB17 SCID mouse at 200 mg/kg, sc by LC-MS method; details: in vivo

SMILES: CCS(=O)(=O)N1CCC([C@@H](C)n2c(C)c(C(=O)NCc3c(OC)cc(C)[nH]c3=O)c3ccccc32)CC1
- Vd [1]: 0.795 L/kg
- AUC [2]: 0.362 µg·h/mL
- Cmax [3]: 9.15 µg/mL
- AUC [4]: 51 µg·h/mL
